Measurements reported in patent US20250042886A1, “BIS(HETERO)ARYL THIOETHER OXADIAZINES AS FUNGICIDAL COMPOUNDS” (Bayer Aktiengesellschaft, priority 2021, published 2025).

Experiments:
[1] = Measurement of Log P values by HPLC on reversed phase columns (EEC directive 79/831 Annex V.A8); assay type: physicochemical; conditions: method [a]: LC-UV, acidic range, 0.1% formic acid in water and acetonitrile
Botrytis cinerea = Botrytis cinerea in vitro cell test; assay type: cell-based; conditions: 144 h, 50 μMol/l of active ingredient, liquid culture, 6 days incubation, read-out: efficacy (inhibition of fungal growth)
Description: B-9. Botrytis cinerea In Vitro Cell Test • Solvent: DMSO • Culture medium: 1 g KH2PO4 (VWR), 1 g K2HPO4 (VWR), 0.5 g Urea (VWR), 3 g KNO3 (Prolabo), 10 g saccharose (VWR), 0.5 g MgSO4, 7H2O (Sigma), 0.07 g CaCl2, 2H2O (Prolabo), 0.2 mg MnSO4, H2O (Sigma), 0.6 mg CuSO4, 5H2O (Sigma), 7.9 mg ZnSO4, 7H2O (Sigma), 0.1 mg H3BO3 (Merck), 0.14 mg NaMoO4, 2H2O (Sigma), 2 mg thiamine (Sigma), 0.1 mg biotine (VWR), 4 mg FeSO4, 7H2O (Sigma), QSP 1 liter • Inoculum: spore suspension Fungicides were solubilized in DMSO and the solution used to prepare the required range of concentrations. […] A spore suspension of B. cinerea was prepared and diluted to the desired spore density. Fungicides were evaluated for their ability to inhibit spore germination and mycelium growth in liquid culture assay. The compounds were added in the desired concentration to the culture medium with spores. After 6 days incubation, fungi-toxicity of compounds was determined by spectrometric measurement of mycelium growth. Inhibition of fungal growth was determined by comparing the absorbance values in wells containing the fungicides with the absorbance in control wells without fungicides.

[2] = test system: Colletotrichum lindemuthianum; assay: Colletotrichum lindemuthianum in vitro cell test; assay type: cell-based; conditions: 144 h, liquid culture, 6 days incubation, read-out: efficacy (inhibition of fungal growth)
Description: B-7. Colletotrichum lindemuthianum In Vitro Cell Test • Solvent: DMSO • Culture medium: 14.6 g anhydrous D-glucose (VWR), 7.1 g Mycological Peptone (Oxoid), 1.4 g granulated Yeast Extract (Merck), QSP 1 liter • Inoculum: spores suspension Fungicides were solubilized in DMSO and the solution used to prepare the required range of concentrations. […] A spore suspension of C. lindemuthianum was prepared and diluted to the desired spore density. Fungicides were evaluated for their ability to inhibit spores germination and mycelium growth in liquid culture assay. The compounds were added in the desired concentration to the culture medium with spores. After 6 days incubation, fungi-toxicity of compounds was determined by spectrometric measurement of mycelium growth. Inhibition of fungal growth was determined by comparing the absorbance values in wells containing the fungicides with the absorbance in control wells without fungicides.

[3] = Table 3, intermediates of formula (27)
[4] = Table 1, compounds of formula (I)

| Structure (SMILES) | chromatographic logP [1, 4] | also measured |
| --- | --- | --- |
| C=CCON=C(N)c1c(Br)nnc(C)c1C [Compound 27-01] |  | chromatographic logP [1, 3]: 1.28 |
| Cc1ccc([C@H]2CON=C(c3c(Sc4cc(Cl)cc(Cl)c4)nnc(C)c3C)N2)s1 (racemic) [Compound I-115] | 3.68 | inhibition at 50 µM (Botrytis cinerea): 90 to 100% |
| Cc1ccc([C@@H]2CON=C(c3c(Sc4ccc(C(F)(F)F)cc4)nnc(C)c3C)N2)s1 (racemic) [Compound I-128] | 3.36 |  |
| Cc1ccc([C@H]2CON=C(c3c(Sc4ccc(Cl)cc4)nnc4ccccc34)N2)s1 (racemic) [Compound I-070] | 3.62 |  |
| Cc1cc([C@H]2CON=C(c3c(Sc4ccc(Cl)cc4)nnc(C)c3C)N2)c(C)s1 (racemic) [Compound I-134] | 3.49 |  |
| Cc1cc([C@@H]2CON=C(c3c(Sc4ccc(F)cc4F)nnc(C)c3C)N2)c(C)s1 (racemic) [Compound I-051] | 3.32 |  |
| Cc1ccc([C@@H]2CON=C(c3c(Sc4ccc(F)cc4F)nnc(C)c3C)N2)s1 (racemic) [Compound I-073] | 2.95 | inhibition at 50 µM (Botrytis cinerea): 80 to 89% |
| Cc1ccc([C@@H]2CON=C(c3c(Sc4ccc(F)cc4)nnc(C)c3C)N2)s1 (racemic) [Compound I-063] | 2.82 | inhibition at 50 µM (Botrytis cinerea): 70 to 79% |
| Cc1ccc([C@@H]2CON=C(c3c(Sc4ccc(OC(F)(F)F)cc4)nnc(C)c3C)N2)s1 (racemic) [Compound I-116] | 3.52 |  |
| Cc1ccc(Sc2nnc(C)c(C)c2C2=NOC[C@@H](c3ccc(C)s3)N2)cc1 (racemic) [Compound I-094] | 3.01 |  |
| Cc1ccc([C@H]2CON=C(c3c(Sc4cccc5ccccc45)nnc(C)c3C)N2)s1 (racemic) [Compound I-092] | 3.3 |  |
| Cc1ccc([C@H]2CON=C(c3c(Sc4ccccn4)nnc(C)c3C)N2)s1 (racemic) [Compound I-105] | 2.03 |  |
| Cc1ccc(Sc2nnc3ccccc3c2C2=NOC[C@H](c3ccc(C)s3)N2)cc1 (racemic) [Compound I-101] | 3.49 |  |
| Cc1ccc(C)c(Sc2nnc3ccccc3c2C2=NOC[C@H](c3ccc(C)s3)N2)c1 (racemic) [Compound I-123] | 3.8 |  |
| FC(F)(F)Oc1cccc(Sc2nnc(Cl)cc2C2=NOC[C@H](Cc3ccc(Cl)cc3Cl)N2)c1 (racemic) [Compound I-019] | 4.99 |  |
| Cc1ccc([C@@H]2CON=C(c3c(Sc4ccc(Cl)cc4Cl)nnc(C)c3C)N2)s1 (racemic) [Compound I-075] | 3.45 |  |
| Cc1ccc([C@H]2CON=C(c3c(Sc4ccccc4Cl)nnc(C)c3C)N2)s1 (racemic) [Compound I-114] | 2.93 | inhibition at 50 µM (Botrytis cinerea): 90 to 100% |
| Cc1cc([C@@H]2CON=C(c3c(Sc4ccc(F)cc4)nnc(C)c3C)N2)c(C)s1 (racemic) [Compound I-081] | 3.18 |  |
| Cc1cc([C@H]2CON=C(c3c(Sc4cccc5ccccc45)nnc(C)c3C)N2)c(C)s1 (racemic) [Compound I-037] | 3.67 |  |
| Cc1ccc(C)c(Sc2nnc(C)c(C)c2C2=NOC[C@H](c3ccc(C)s3)N2)c1 (racemic) [Compound I-043] | 3.28 |  |
| Cc1cc([C@H]2CON=C(c3c(Sc4cc(Cl)cc(Cl)c4)nnc(C)c3C)N2)c(C)s1 (racemic) [Compound I-061] | 4.04 | inhibition at 50 µM (Botrytis cinerea): 70 to 79% |
| Cc1cc([C@@H]2CON=C(c3c(Sc4ccc(C(F)(F)F)cc4)nnc(C)c3C)N2)c(C)s1 (racemic) [Compound I-076] | 3.71 |  |
| CCOc1cccc(Sc2nnc(C)c(C)c2C2=NOC[C@@H](c3cc(C)sc3C)N2)c1 (racemic) [Compound I-046] | 3.44 | inhibition at 50 µM ([2]; 50 μMol/l of active ingredient): 80 to 89% |
| Cc1ccc([C@H]2CON=C(c3c(Sc4ccc(C)c(C)c4)nnc(C)c3C)N2)s1 (racemic) [Compound I-093] | 3.26 | inhibition at 50 µM (Botrytis cinerea): 90 to 100% |
| C=CCON=C(N)c1c(Br)nnc2ccccc12 [Compound 27-02] |  | chromatographic logP [1, 3]: 1.81 |
| Cc1ccc([C@H]2CON=C(c3c(Sc4ccc(C(F)(F)F)cc4)nnc4ccccc34)N2)s1 (racemic) [Compound I-130] | 3.81 | inhibition at 50 µM (Botrytis cinerea): 70 to 79% |

| Structure (SMILES) | chromatographic logP [1, 4] | also measured |
| --- | --- | --- |
| Cc1ccc([C@H]2CON=C(c3c(Sc4cc(Cl)ccc4Cl)nnc(C)c3C)N2)s1 (racemic) [Compound I-053] | 3.4 |  |
| COc1ccc(Sc2nnc3ccccc3c2C2=NOC[C@H](c3ccc(C)s3)N2)cc1 (racemic) [Compound I-077] | 3.22 |  |
| FC(F)(F)Oc1cccc(Sc2cnc(Cl)cc2C2=NOC[C@H](Cc3ccc(Cl)cc3Cl)N2)c1 (racemic) [Compound I-020] | 5.13 | inhibition at 20 ppm ([2]; 20 ppm of active ingredient): 90 to 100% |
| Cc1ccc([C@@H]2CON=C(c3c(Sc4ccc(C(C)(C)C)cc4)nnc(C)c3C)N2)s1 (racemic) [Compound I-065] | 3.95 |  |
| Cc1cc([C@@H]2CON=C(c3c(Sc4ccc(C(C)(C)C)cc4)nnc(C)c3C)N2)c(C)s1 (racemic) [Compound I-132] | 4.32 |  |
| Cc1ccc(C)c(Sc2nnc(C)c(C)c2C2=NOC[C@H](c3cc(C)sc3C)N2)c1 (racemic) [Compound I-057] | 3.66 |  |
| COc1ccc(Sc2nnc(C)c(C)c2C2=NOC[C@@H](c3ccc(C)s3)N2)cc1 (racemic) [Compound I-054] | 2.76 |  |
| Cc1cc([C@H]2CON=C(c3c(Sc4ccc(Cl)c(Cl)c4)nnc(C)c3C)N2)c(C)s1 (racemic) [Compound I-107] | 3.92 | inhibition at 50 µM (Botrytis cinerea): 80 to 89% |
| NC(=NO)c1c(Br)nnc2ccccc12 [Compound 29-02] |  | chromatographic logP ([1]; Table 4, intermediates of formula (29)): 0.31 |
| Cc1ccc([C@H]2CON=C(c3c(Sc4ccc(Cl)c(Cl)c4)nnc(C)c3C)N2)s1 (racemic) [Compound I-137] | 3.55 | inhibition at 50 µM (Botrytis cinerea): 90 to 100% |
| Cc1ccc([C@H]2CON=C(c3c(Sc4ccc(C(C)(C)C)cc4)nnc4ccccc34)N2)s1 (racemic) [Compound I-113] | 4.43 |  |
| Cc1ccc([C@@H]2CON=C(c3c(Sc4ccc(C)c(Cl)c4)nnc(C)c3C)N2)s1 (racemic) [Compound I-082] | 3.47 | inhibition at 50 µM (Botrytis cinerea): 90 to 100% |
| Cc1ccc([C@H]2CON=C(c3c(Sc4cc(Cl)ccc4Cl)nnc4ccccc34)N2)s1 (racemic) [Compound I-096] | 3.88 |  |
| Cc1ccc(Sc2nnc(C)c(C)c2C2=NOC[C@@H](c3cc(C)sc3C)N2)c(C)c1 (racemic) [Compound I-087] | 3.68 | inhibition at 50 µM (Botrytis cinerea): 70 to 79% |
| Cc1ccc([C@H]2CON=C(c3c(Sc4cc(Cl)cc(Cl)c4)nnc4ccccc34)N2)s1 (racemic) [Compound I-120] | 4.18 |  |
| Cc1ccc([C@H]2CON=C(c3c(Sc4ccc(Cl)cc4Cl)nnc4ccccc34)N2)s1 (racemic) [Compound I-058] | 3.96 |  |
| Cc1ccc(Sc2nnc3ccccc3c2C2=NOC[C@H](c3ccc(C)s3)N2)c(C)c1 (racemic) [Compound I-052] | 3.83 |  |
| Cc1ccc([C@H]2CON=C(c3c(Sc4ccc5ccccc5c4)nnc4ccccc34)N2)s1 (racemic) [Compound I-098] | 3.81 |  |
| Cc1ccc([C@H]2CON=C(c3c(Sc4ccncc4)nnc(C)c3C)N2)s1 (racemic) [Compound I-072] | 1.3 |  |
| Cc1ccc([C@H]2CON=C(c3c(Sc4ccc(Cl)cc4)nnc(C)c3C)N2)s1 (racemic) [Compound I-064] | 3.14 |  |
| Cc1ccc([C@H]2CON=C(c3c(Sc4ccc(OC(F)(F)F)cc4)nnc4ccccc34)N2)s1 (racemic) [Compound I-112] | 3.96 | inhibition at 50 µM (Botrytis cinerea): 70 to 79% |
| Cc1cc([C@@H]2CON=C(c3c(Sc4ccc(Cl)cc4Cl)nnc(C)c3C)N2)c(C)s1 (racemic) [Compound I-039] | 3.87 |  |
| Cc1ccc([C@@H]2CON=C(c3c(Sc4ccc5ccccc5c4)nnc(C)c3C)N2)s1 (racemic) [Compound I-138] | 3.33 |  |
| Cc1cc([C@@H]2CON=C(c3c(Sc4ccc(OC(F)(F)F)cc4)nnc(C)c3C)N2)c(C)s1 (racemic) [Compound I-119] | 3.87 | inhibition at 50 µM (Botrytis cinerea): 70 to 79% |
| Cc1cc([C@H]2CON=C(c3c(Sc4ccncc4)nnc(C)c3C)N2)c(C)s1 (racemic) [Compound I-041] | 1.58 |  |
